Laboratory results from PubChem BioAssay (NCI).
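Briefly, cells in 96-well plates were exposed to five compound concentrations for 48 h, and endpoints were estimated by linear interpolation. GI50 is the concentration that inhibits growth by half. TGI: total growth inhibition.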

Legend:
Assay in all cases: inhibition of tumour cell growth, NCI panel, 48 h
M19-MEL melanoma = tested on: M19-MEL melanoma
LXFL 529 NSCLC = tested on: LXFL 529 NSCLC
NCI-H522 lung = tested on: NCI-H522 lung
RPMI-8226 leukemia = tested on: RPMI-8226 leukemia
UACC-257 melanoma = tested on: UACC-257 melanoma
UO-31 renal = tested on: UO-31 renal
HOP-62 NSCLC = tested on: HOP-62 NSCLC
HT29 colon = tested on: HT29 colon
SNB-19 CNS = tested on: SNB-19 CNS
HS 578T breast = tested on: HS 578T breast

OCC1OC(c2nc(C3=NCCCN3)cs2)C(O)C1O (centres undefined)
TGI (M19-MEL melanoma): > 100 µM | TGI (LXFL 529 NSCLC): > 100 µM | TGI (NCI-H522 lung): > 100 µM | TGI (RPMI-8226 leukemia): > 100 µM | TGI (UACC-257 melanoma): > 100 µM | TGI (UO-31 renal): > 100 µM | TGI (HOP-62 NSCLC): > 100 µM | TGI (HT29 colon): > 100 µM | TGI (SNB-19 CNS): > 100 µM

O=C(CCc1n[nH]c(=S)o1)Nc1ccccc1C(F)(F)F
TGI (M19-MEL melanoma): > 100 µM | TGI (LXFL 529 NSCLC): > 100 µM | TGI (NCI-H522 lung): > 100 µM | TGI (RPMI-8226 leukemia): 85.1 µM | TGI (UACC-257 melanoma): > 100 µM | TGI (UO-31 renal): > 100 µM | TGI (HOP-62 NSCLC): > 100 µM | TGI (HT29 colon): > 100 µM | TGI (SNB-19 CNS): > 100 µM

CCN1CCC(O)(c2ccc(OC)cc2)C(C(=O)c2ccc(OC)cc2)C1 (centres undefined)
TGI (M19-MEL melanoma): 34.9 µM | TGI (LXFL 529 NSCLC): 37.2 µM | TGI (NCI-H522 lung): 4.06 µM | TGI (RPMI-8226 leukemia): 38.9 µM | TGI (UACC-257 melanoma): 48 µM | TGI (UO-31 renal): 35.3 µM | TGI (HOP-62 NSCLC): > 100 µM | TGI (HT29 colon): 48.1 µM | TGI (SNB-19 CNS): 69.1 µM

N#C/C1=C(\N)CCSSSC1
TGI (M19-MEL melanoma): > 100 µM | TGI (LXFL 529 NSCLC): > 100 µM | TGI (NCI-H522 lung): 45.6 µM | TGI (RPMI-8226 leukemia): > 100 µM | TGI (UACC-257 melanoma): > 100 µM | TGI (UO-31 renal): > 100 µM | TGI (HOP-62 NSCLC): 89.6 µM | TGI (HT29 colon): > 100 µM | TGI (SNB-19 CNS): > 100 µM

O=C1/C(=C/c2ccc3c(c2)OCO3)SC2C=Nc3ccccc3N12 (centres undefined)
TGI (M19-MEL melanoma): > 100 µM | TGI (LXFL 529 NSCLC): > 100 µM | TGI (NCI-H522 lung): > 100 µM | TGI (UACC-257 melanoma): > 100 µM | TGI (UO-31 renal): > 100 µM | TGI (HOP-62 NSCLC): > 100 µM | TGI (HT29 colon): > 100 µM | TGI (SNB-19 CNS): > 100 µM

Cc1cc(Cl)ccc1NC(=O)C(=O)Cc1nc2ccccc2o1
TGI (M19-MEL melanoma): > 100 µM | TGI (LXFL 529 NSCLC): > 100 µM | TGI (NCI-H522 lung): > 100 µM | TGI (RPMI-8226 leukemia): > 100 µM | TGI (UACC-257 melanoma): > 100 µM | TGI (UO-31 renal): > 100 µM | TGI (HOP-62 NSCLC): > 100 µM | TGI (HT29 colon): > 100 µM | TGI (SNB-19 CNS): > 100 µM

[N-]=[N+]=N[C@H]1C[C@@H](CO)O[C@H]1n1cnc2c(N)ncnc21
TGI (M19-MEL melanoma): > 100 µM | TGI (LXFL 529 NSCLC): > 100 µM | TGI (NCI-H522 lung): > 100 µM | TGI (UACC-257 melanoma): > 100 µM | TGI (UO-31 renal): > 100 µM | TGI (HOP-62 NSCLC): > 100 µM | TGI (HT29 colon): > 100 µM | TGI (SNB-19 CNS): > 100 µM

NC(=O)C12CC3CC(CC(F)(C3)C1)C2
TGI (M19-MEL melanoma): > 100 µM | TGI (LXFL 529 NSCLC): > 100 µM | TGI (NCI-H522 lung): > 100 µM | TGI (RPMI-8226 leukemia): > 100 µM | TGI (UACC-257 melanoma): > 100 µM | TGI (UO-31 renal): > 100 µM | TGI (HOP-62 NSCLC): > 100 µM | TGI (HT29 colon): > 100 µM

C1=CC(N(c2ccccc2)C2C=CCCC2)CCC1 (centres undefined)
TGI (M19-MEL melanoma): > 100 µM | TGI (LXFL 529 NSCLC): > 100 µM | TGI (NCI-H522 lung): > 100 µM | TGI (RPMI-8226 leukemia): > 100 µM | TGI (HT29 colon): > 100 µM

O=c1ccn([C@H]2CSC[C@@H](CO)C2)c(=O)[nH]1
TGI (M19-MEL melanoma): > 100 µM | TGI (LXFL 529 NSCLC): > 100 µM | TGI (NCI-H522 lung): > 100 µM | TGI (RPMI-8226 leukemia): > 100 µM | TGI (UACC-257 melanoma): > 100 µM | TGI (UO-31 renal): > 100 µM | TGI (HOP-62 NSCLC): > 100 µM | TGI (HT29 colon): > 100 µM | TGI (SNB-19 CNS): > 100 µM

CCCc1nc(NC#N)nc(C(=O)Nc2ccccc2)c1CC
TGI (M19-MEL melanoma): > 100 µM | TGI (LXFL 529 NSCLC): > 100 µM | TGI (NCI-H522 lung): > 100 µM | TGI (RPMI-8226 leukemia): > 100 µM | TGI (UACC-257 melanoma): > 100 µM | TGI (UO-31 renal): > 100 µM | TGI (HOP-62 NSCLC): > 100 µM | TGI (HT29 colon): > 100 µM | TGI (SNB-19 CNS): > 100 µM

COc1ccc(NC(=O)/C(Cc2cc(=O)oc3cc(O)ccc23)=N\NC(C)(C)C)c(OC)c1
TGI (M19-MEL melanoma): > 100 µM | TGI (LXFL 529 NSCLC): > 100 µM | TGI (NCI-H522 lung): > 100 µM | TGI (RPMI-8226 leukemia): > 100 µM | TGI (UACC-257 melanoma): > 100 µM | TGI (UO-31 renal): > 100 µM | TGI (HOP-62 NSCLC): > 100 µM | TGI (HT29 colon): > 100 µM | TGI (SNB-19 CNS): > 100 µM

CN1CCOC(c2ccccc2)O1 (centres undefined)
TGI (M19-MEL melanoma): > 100 µM | TGI (LXFL 529 NSCLC): > 100 µM | TGI (NCI-H522 lung): > 100 µM | TGI (RPMI-8226 leukemia): > 100 µM | TGI (UACC-257 melanoma): > 100 µM | TGI (UO-31 renal): > 100 µM | TGI (HOP-62 NSCLC): > 100 µM | TGI (HT29 colon): > 100 µM | TGI (SNB-19 CNS): > 100 µM

O=C(Nc1nc(=S)c2c(ncn2CCOC(=O)c2ccccc2)[nH]1)c1ccccc1
TGI (M19-MEL melanoma): > 100 µM | TGI (LXFL 529 NSCLC): > 100 µM | TGI (NCI-H522 lung): 68.1 µM | TGI (RPMI-8226 leukemia): > 100 µM | TGI (UACC-257 melanoma): > 100 µM | TGI (UO-31 renal): > 100 µM | TGI (HOP-62 NSCLC): 79.6 µM | TGI (HT29 colon): > 100 µM | TGI (SNB-19 CNS): > 100 µM

CN(C)CC1CCCC/C1=N/OC(=O)c1ccc(Cl)cc1 (centres undefined)
TGI (M19-MEL melanoma): > 100 µM | TGI (LXFL 529 NSCLC): > 100 µM | TGI (NCI-H522 lung): > 100 µM | TGI (RPMI-8226 leukemia): > 100 µM | TGI (UACC-257 melanoma): > 100 µM | TGI (UO-31 renal): > 100 µM | TGI (HOP-62 NSCLC): > 100 µM | TGI (HT29 colon): > 100 µM

CC(=O)OC12C=CC(=O)N1c1ccccc1C(=O)O2 (centres undefined)
TGI (M19-MEL melanoma): > 100 µM | TGI (LXFL 529 NSCLC): > 100 µM | TGI (NCI-H522 lung): > 100 µM | TGI (RPMI-8226 leukemia): > 100 µM | TGI (UACC-257 melanoma): > 100 µM | TGI (UO-31 renal): > 100 µM | TGI (HOP-62 NSCLC): > 100 µM | TGI (HT29 colon): > 100 µM | TGI (SNB-19 CNS): > 100 µM | GI50 (HS 578T breast): > 100 µM | TGI (HS 578T breast): > 100 µM

CCC[CH2][Sn]([Cl])([CH2]CCC)[CH2]CCC
GI50 (M19-MEL melanoma): 0.11 µM | TGI (M19-MEL melanoma): 0.236 µM | GI50 (LXFL 529 NSCLC): 0.0645 µM | TGI (LXFL 529 NSCLC): 0.202 µM | GI50 (NCI-H522 lung): 0.116 µM | TGI (NCI-H522 lung): 0.27 µM | GI50 (RPMI-8226 leukemia): 0.0171 µM | TGI (RPMI-8226 leukemia): 0.168 µM | GI50 (UACC-257 melanoma): 0.108 µM | TGI (UACC-257 melanoma): 0.248 µM | GI50 (UO-31 renal): 0.16 µM | TGI (UO-31 renal): 0.312 µM | GI50 (HOP-62 NSCLC): 0.271 µM | TGI (HOP-62 NSCLC): 1.13 µM | GI50 (HT29 colon): 0.0396 µM | TGI (HT29 colon): 0.143 µM | GI50 (SNB-19 CNS): 0.174 µM | TGI (SNB-19 CNS): 0.346 µM

Cc1cc(N(CCC#N)CCC#N)ccc1N=Nc1ccc(C(=O)O)cc1
TGI (M19-MEL melanoma): > 100 µM | TGI (LXFL 529 NSCLC): > 100 µM | TGI (NCI-H522 lung): > 100 µM | TGI (RPMI-8226 leukemia): > 100 µM | TGI (UACC-257 melanoma): > 100 µM | TGI (UO-31 renal): > 100 µM | TGI (HOP-62 NSCLC): > 100 µM | TGI (HT29 colon): > 100 µM

CC1c2c(Cl)nc3ccccc3c2Oc2c1c(Cl)nc1ccccc21
TGI (M19-MEL melanoma): > 100 µM | TGI (LXFL 529 NSCLC): > 100 µM | TGI (NCI-H522 lung): > 100 µM | TGI (RPMI-8226 leukemia): > 100 µM | TGI (UACC-257 melanoma): > 100 µM | TGI (UO-31 renal): > 100 µM | TGI (HOP-62 NSCLC): > 100 µM | TGI (HT29 colon): > 100 µM | TGI (SNB-19 CNS): > 100 µM

C1CN2CCN3CCN4CCN1[P+]243
TGI (M19-MEL melanoma): > 100 µM | TGI (LXFL 529 NSCLC): > 100 µM | TGI (NCI-H522 lung): > 100 µM | TGI (RPMI-8226 leukemia): > 100 µM | TGI (UACC-257 melanoma): > 100 µM | TGI (UO-31 renal): > 100 µM | TGI (HOP-62 NSCLC): > 100 µM | TGI (HT29 colon): > 100 µM | TGI (SNB-19 CNS): > 100 µM

CCOc1ccccc1NC(=O)C(=O)CC(=O)c1sc(Nc2nnc(-c3ccc(Cl)c(Cl)c3)o2)nc1C
TGI (M19-MEL melanoma): > 100 µM | TGI (LXFL 529 NSCLC): > 100 µM | TGI (RPMI-8226 leukemia): > 100 µM | TGI (UACC-257 melanoma): > 100 µM | TGI (UO-31 renal): > 100 µM | TGI (HOP-62 NSCLC): > 100 µM | TGI (HT29 colon): > 100 µM | TGI (SNB-19 CNS): > 100 µM

CCOc1ccc(NC(=O)C(=O)CC(=O)c2c(C)n([O-])c3ccccc3[n+]2=O)cc1
TGI (M19-MEL melanoma): > 100 µM | TGI (LXFL 529 NSCLC): > 100 µM | TGI (NCI-H522 lung): > 100 µM | TGI (RPMI-8226 leukemia): > 100 µM | TGI (UACC-257 melanoma): > 100 µM | TGI (UO-31 renal): > 100 µM | TGI (HOP-62 NSCLC): > 100 µM | TGI (HT29 colon): > 100 µM | TGI (SNB-19 CNS): > 100 µM
